According to patent US20240246960A1 (adMare Therapeutics Society, priority 2021, published 2024):
Where two headings read alike, the source gives them in different places.

Assays:
[1] = test system: pH2AX induction in HCT116 ATM−/− multicellular tumour spheroids; assay: Prodrug radiation sensitization in multicellular tumour spheroids (pH2AX induction following radiation); format: cell-based; details: Homo sapiens, HCT-116, 20 Gy
Description: Prodrug compounds were assayed to determine their potency in 3D multicellular spheroids in media maintained under 20% vs […]. Multicellular tumour spheroids were grown to approximately 0.5 mm in diameter and irradiated with 20 Gy in combination with inhibitor test compounds to determine their potency using HCT116 and FaDu cell lines. Experiments were carried out in 96 well plates containing 0.7 mls of MEM media containing 10% FBS and 10 mM glucose under […] at 37° C. Following dilution of compounds 1:1000 from DMSO stocks, compounds were serially diluted from 10 μM down to 3.5 nM and 5-10 spheroids added. 96 well plates were constantly stirred to avoid spheroids settling during the course of the experiment. Endpoints were pDNA-PK (ser 2056) or pH2AX (ser 139) status in spheroid cryosections taken 1 or 2 hours following radiation and fixed immediately in formalin. Using tumour cell lines deficient in ATM improved the assay signal to noise and gH2AX readout. Using this assay prodrug activity could be compared in the more oxygenated outer spheroid layers versus less oxygenated hypoxic central cell layers.

[2] = Microsomal stability assay, mouse liver microsomes; details: Example 11; for microsomal CLint at 0.1 uM: male, CD-1, mouse, liver microsomes, pH 7.4, Microsomal Stability Mouse Clint
Description: Mouse liver microsomes were obtained from a pool of 250 or more male CD-1 mice. […] Final microsomal concentration was 0.1 mg/mL and test compound concentration was 0.1 uM with a maximum of 0.01% DMSO. The test compound was pre-incubated with pooled liver microsomes in phosphate buffer (pH 7.4) for 5 min in a 37° C. shaking water bath. The reaction was initiated by adding NADPH-generating system and incubated for 0, 15, 30, 45, and 60 min. The reaction was stopped by transferring the incubation mixture to acetonitrile/methanol. Samples were then mixed and centrifuged. Supernatants were used for HPLC-MS/MS analysis. The HPLC system consisted of a binary LC pump with autosampler, a C-18 column, and a gradient. Peak areas corresponding to the test compound were recorded. The compound remaining was calculated by comparing the peak area at each time point to time zero. The half-life was calculated from the slope of the initial linear range of the logarithmic curve of compound remaining (%) vs. time, assuming first order kinetics. In addition, the intrinsic clearance (Clint) was calculated from the half-life.

[3] = test system: FaDu cell line; assay: Prodrug activation in hypoxic stirred tumour cell suspensions; format: in vitro ADME; details: 10 μM, 4 hours
Description: Prodrug compounds were assayed to determine their stability and rate of activation in stirred cell suspensions under 0.2 vs 5% oxygen. Compounds were diluted 1:1000 from DMSO stocks to 10 μM final concentration in tumour cell suspensions (1% by cell volume) in MEM media containing 10% FBS, 10 mM glucose & 3.7 g/L sodium bicarbonate. Cell lines assayed included A253, A549, Detroit562, FaDu, HCT116, HEP G2, HT29, SCC25, SCC9, SiHa & TC32. Compounds and cells were then incubated for 4 hours under constant mixing at 37° C. under 5% CO2 and either 0.2 or 5% O2. Following the incubation period cellular activation of the compounds was assayed via MeOH extraction and HPLC quantification.

[4] = Microsomal stability assay, human liver microsomes; format: in vitro ADME; details: for Microsomal Stability (human) % rem. 60 min: Example 11; for microsomal CLint at 0.1 uM: both sexes, human, liver microsomes, pH 7.4, Example 11
Description: Samples were then mixed and centrifuged. Supernatants were used for HPLC-MS/MS analysis. […] Peak areas corresponding to the test compound were recorded.

[5] = biological target: T1, DNA-PK phosphorylation at Serine 2056 (Homo sapiens, UniProt P78527); assay: Cellular Assay for Inhibition of DNA-PK Phosphorylation at Serine 2056 (FaDu cells, neocarzinostatin, sandwich ELISA); format: cell-based; details: Table 2
T1 construct: host or cells: FaDu
Summary of the method: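 FaDu cells were pretreated with compound (0.3% DMSO) for 1 h, then exposed to neocarzinostatin at 1 μg/mL final for 2 h to induce DSBs. Protein-normalized lysates were assayed by MSD sandwich ELISA for total and pSer2056 DNA-PK. IC50 came from variable-slope fits of % inhibition relative to DMSO and NCS controls.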

[6] = biological target: T2, DNA-PK (Homo sapiens, UniProt P78527); assay: DNA-PK Assay for Biochemical Enzymatic Inhibition (ADP Glo Kinase assay); details: Table 2
T2 construct: purchased Invitrogen PR9107A
Summary of the method: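 Human DNA-PK (25 ng) preincubated 15 min with compounds (ten three-fold dilutions) in HEPES pH 7.5, MgCl2, KCl, calf thymus DNA buffer, then substrate 434.4 μM and ATP 64.4 μM (final) for 60 min at room temperature. ADP-Glo luminescence; percent inhibition fitted by four-parameter regression for IC50.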

[7] = 5% O2, inner layers, read-out: Prodrug 5% O2 Inner layers EC50
[8] = 5% O2, outer layers, read-out: Prodrug 5% O2 Outer layers EC50
[9] = 20% O2, outer layers, read-out: Prodrug 20% O2 Outer layers EC50

SMILES	EC50 [1, 7] [nM]	EC50 [1, 8] [nM]	EC50 [1, 9] [nM]	Microsomal Stability (mouse) % rem. 60 min [2]	microsomal CLint at 0.1 uM [2] [µL/min/mg]	Fraction of prodrug converted to active form, Hypoxic 0.2% O2 [3]	Fraction of prodrug converted to active form, Oxic 5% O2 [3]	Microsomal Stability (human) % rem. 60 min [4]	microsomal CLint at 0.1 uM [4] [µL/min/mg]	IC50 [5] [nM]	IC50 [6] [nM]
CC(c1cnc([N+](=O)[O-])n1C)N(c1cnc2cc(N3CCOCC3)nc(OC3CCC(Nc4ncc(C#N)cn4)CC3)c2c1)S(C)(=O)=O (centres unmarked) [LFA027, N-[5-[4-[(5-Cyanopyrimidin-2-yl)amino]cyclohexoxy]-7-morpholino-1,6-naphthyridin-3-yl]-N-[1-(3-methyl-2-nitro-imidazol-4-yl)ethyl]methanesulfonamide]	10 to 500	500 to 1000	1000 to 10000	E (% remaining = 0-25%)	> 116	B (B is 0.05 to 0.15)	C (C is 0.02 to 0.05)	E (% remaining = 0-25%)	> 116	–	–
CC(c1cnc([N+](=O)[O-])n1C)N(c1cnc2cc(N3CCOCC3)nc(OC3CCC(Nc4ncc(C(F)(F)F)cn4)CC3)c2c1)S(C)(=O)=O (centres unmarked) [LFA024, N-[1-(3-Methyl-2-nitro-imidazol-4-yl)ethyl]-N-[7-morpholino-5-[4-[[5-(trifluoromethyl)pyrimidin-2-yl]amino]cyclohexoxy]-1,6-naphthyridin-3-yl]methanesulfonamide]	10 to 500	1000 to 10000	10000 to 100000	E (% remaining = 0-25%)	> 116	B (B is 0.05 to 0.15)	D (D is 0 to 0.02)	E (% remaining = 0-25%)	< 116	–	–
CC(c1cnc([N+](=O)[O-])n1C)N(c1cnc2cc(N3CCOCC3)nc(OC3CCC(Nc4ncccn4)CC3)c2c1)S(C)(=O)=O (centres unmarked) [LFA010, N-[1-(3-Methyl-2-nitro-imidazol-4-yl)ethyl]-N-[7-morpholino-5-[4-(pyrimidin-2-ylamino)cyclohexoxy]-1,6-naphthyridin-3-yl]methanesulfonamide]	10 to 500	10 to 500	1000 to 10000	E (% remaining = 0-25%)	> 116	A (A is 0.15 to 1)	C (C is 0.02 to 0.05)	E (% remaining = 0-25%)	< 116	1000 to 10000	10 to 150
